In PubChem BioAssay (NCI) one finds TGI data, which are given here for seven molecules.

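Values below derive from 48-hour exposures of cells grown in 96-well plates, with endpoints linearly interpolated between the two concentrations bracketing the appropriate inhibition level. The concentration for full growth arrest is given as TGI.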 Where a SMILES comes first, the peptide text is derived from it.

Assay in all cases: growth of human tumour cells (NCI), 48 h
For assay [1], the system named is MDA-MB-231 breast.
Assay [2] relates to BT-549 breast.
Assay [3] relates to SF-268 CNS.
The subject of assay [4] is UACC-62 melanoma.
Assay [5] has as its system UACC-257 melanoma.
Assay [6] has as its system HS 578T breast.
The test system of assay [7] is MOLT-4 leukemia.
The subject of assay [8] is 786-0 renal.
Assay [9] concerns MCF7 breast.
Assay [10] relates to RXF 393 renal.
Assay [11] has as its system MDA-MB-435.
The subject of assay [12] is OVCAR-3 ovarian.
Assay [13] has as its system NCI-H226 lung.
In assay [14] the test system is OVCAR-4 ovarian.
In assay [15] the test system is SN12C renal.
The subject of assay [16] is RPMI-8226 leukemia.
For assay [17], the system named is SNB-75 CNS.

Regarding `CC(=O)NC(CS)C(=O)NC(CO)C(=O)NC(CO)C(=O)NC(Cc1c[nH]c2ccccc12)C(=O)N1CCCC1C(=O)NC(CO)C(=O)NC(Cc1c[nH]c2ccccc12)C(=O)NC(Cc1c[nH]cn1)C(=O)NC(CO)C(=O)NC(Cc1c[nH]c2ccccc12)C(=O)NCC(=O)NCC(=O)NC(CC(=O)O)C(=O)NC(CCC(N)=O)C(=O)NC(CCCCN)C(=O)NC(Cc1ccccc1)C(=O)NC(CCCNC(=N)N)C(=O)NC(CCCCN)C(N)=O` (centres undefined) (Ac-CSSWPSWHSWGGDQKFRK-NH2; configuration not given here), the TGI in assay [1], in assay [2], in assay [3], in [4], in assay [5] and in assay [6] was above 25 µM in each case. Besides, the TGI in assay [7], in assay [8], in [9], in [10], in assay [11] and in assay [12] was above 25 µM each time. Also, the TGI in assay [13], in assay [14], in [15], in assay [16] and in assay [17] was above 25 µM each time.
For the molecule `CCN(CC)CCn1c2cc3c(cc2c(=O)c2cccnc21)OCO3`, the TGI in [1], in assay [2], in assay [3], in assay [4], in assay [5] and in [6] was above 10 µM each time. Also, the TGI in assay [7], in assay [8], in [9], in assay [10], in assay [11] and in [12] was above 10 µM each time. For the same molecule, the TGI in [13], in assay [14], in [15], in assay [16] and in [17] was above 10 µM in each case.
For `S=C(N/N=C(/c1ccccc1)c1ccccn1)Nc1ccc(Cl)cc1`, the TGI is 8.27 µM in assay [1]; 9.94 µM in assay [2]; 15.5 µM in [3]; 7.65 µM in [4]; 2.43 µM in [5]; above 78.2 µM in assay [6]. Moreover, the TGI in assay [7] was above 13.8 µM; in [8], 12.3 µM; in assay [9], 7.16 µM; in assay [10], 7.87 µM; in [11] it was 10.2 µM; in assay [12] it was 11.6 µM. In addition, the TGI is 7.54 µM in assay [13]; 14.2 µM in assay [14]; 13.4 µM in [15]; above 25.9 µM in assay [16]; 8.84 µM in assay [17].
On to `C[C@H]1CCCCC[C@@H]2CC(=O)CC2C(=O)CCC(=O)O1` (some centres undefined), for which the TGI in assay [1], in assay [2], in assay [3], in [4], in assay [5] and in assay [6] was above 100 µM throughout. Also, the TGI in assay [7], in [8], in assay [9], in assay [10], in assay [11] and in assay [12] was above 100 µM in each case. In addition, the TGI in assay [13], in assay [14], in assay [15], in assay [16] and in assay [17] was above 100 µM each time.
`Cc1cc2c(cc1C)C(=O)C1(C2)Cc2c(ccc(C)c2C)C1=O` (centres undefined): the TGI in [1], in assay [2], in assay [3], in assay [4], in [5] and in assay [6] was above 100 µM in each case. The TGI in assay [7], in assay [8], in assay [9], in [10], in assay [11] and in [12] was above 100 µM each time. Besides, the TGI in assay [13], in assay [14], in assay [15], in assay [16] and in assay [17] was above 100 µM throughout.
Take `COc1ccc([C@H]2C=C(c3cc(F)c(Cl)cc3Cl)NC(=S)N2)cc1`: the TGI in assay [1] is above 100 µM; in assay [2], above 100 µM; in assay [3], above 100 µM; in [4], above 100 µM; in assay [5] it was 76.2 µM; in [6], above 100 µM. Moreover, the TGI in [7] was above 100 µM; in assay [8] it was above 100 µM; in assay [9], above 100 µM; in [10] it was 79.9 µM; in assay [11] it was 56.4 µM; in assay [12], above 100 µM. Besides, the TGI in [13] was above 100 µM; in assay [14] it was above 100 µM; in assay [15] it was 57.1 µM; in [16] it was 76 µM; in assay [17] it was 66.5 µM.
As for `CC1(c2nc3ccccc3[nH]2)CCC(C(N)=O)C(C)(C)O1` (centres undefined), the TGI in [1], in assay [2], in assay [3], in assay [4], in assay [5] and in [6] was above 100 µM in each case. In addition, the TGI in assay [7], in [8], in [9], in assay [10], in [11] and in assay [12] was above 100 µM throughout. Besides, the TGI in [13], in assay [14], in assay [15], in [16] and in assay [17] was above 100 µM each time.
